Assay results reported in ChEMBL document CHEMBL1201862, “PubChem BioAssay data set” (2004).
Active and inactive are the calls of the source.

Experiments:
[1] = target: T1, Leucine aminopeptidase (Plasmodium falciparum 3D7, UniProt Q8IL11); assay: P. falciparum M17LAP inhibitors, primary screen, biochemical, fluorogenic H-Leu-NHMec substrate, 1536-well (AID 1619); type: functional
T1 sequence (Q8IL11 whole entry): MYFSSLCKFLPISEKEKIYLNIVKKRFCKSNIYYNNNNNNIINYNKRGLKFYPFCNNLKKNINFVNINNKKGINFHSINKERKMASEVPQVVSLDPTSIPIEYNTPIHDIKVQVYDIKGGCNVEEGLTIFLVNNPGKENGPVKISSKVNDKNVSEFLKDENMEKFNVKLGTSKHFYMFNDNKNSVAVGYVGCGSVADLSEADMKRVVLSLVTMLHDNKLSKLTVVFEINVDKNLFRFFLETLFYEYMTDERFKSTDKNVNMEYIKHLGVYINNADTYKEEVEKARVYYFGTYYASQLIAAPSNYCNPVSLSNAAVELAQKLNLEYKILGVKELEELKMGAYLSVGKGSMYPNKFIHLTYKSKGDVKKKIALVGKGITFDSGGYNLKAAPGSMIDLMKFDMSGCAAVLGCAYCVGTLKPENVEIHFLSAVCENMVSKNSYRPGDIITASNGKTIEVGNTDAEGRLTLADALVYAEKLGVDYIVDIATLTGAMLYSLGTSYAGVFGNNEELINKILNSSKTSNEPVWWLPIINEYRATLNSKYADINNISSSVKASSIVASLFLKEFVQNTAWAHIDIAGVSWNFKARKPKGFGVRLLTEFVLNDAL

[2] = alpha-synuclein stem-loop luciferase translation blockers – H4 neuroglioma cells, luminescence, confirmation (AID 1988); type: functional, cell-based
[3] = target: T2, Heat shock factor protein 1 (Mus musculus, UniProt P38532); assay: decrease of HSF1-responsive luciferase luminescence – cell-based, NIH3T3, dose retest, confirmation (AID 2382); type: functional;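 also: NIH3T3 fibroblasts with HSF1-driven luciferase reporter stressed by proteasome inhibitor MG132; luminescence from HSF1-driven luciferase expression after 8 hours of MG132 stress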
T2 sequence (P38532 whole entry): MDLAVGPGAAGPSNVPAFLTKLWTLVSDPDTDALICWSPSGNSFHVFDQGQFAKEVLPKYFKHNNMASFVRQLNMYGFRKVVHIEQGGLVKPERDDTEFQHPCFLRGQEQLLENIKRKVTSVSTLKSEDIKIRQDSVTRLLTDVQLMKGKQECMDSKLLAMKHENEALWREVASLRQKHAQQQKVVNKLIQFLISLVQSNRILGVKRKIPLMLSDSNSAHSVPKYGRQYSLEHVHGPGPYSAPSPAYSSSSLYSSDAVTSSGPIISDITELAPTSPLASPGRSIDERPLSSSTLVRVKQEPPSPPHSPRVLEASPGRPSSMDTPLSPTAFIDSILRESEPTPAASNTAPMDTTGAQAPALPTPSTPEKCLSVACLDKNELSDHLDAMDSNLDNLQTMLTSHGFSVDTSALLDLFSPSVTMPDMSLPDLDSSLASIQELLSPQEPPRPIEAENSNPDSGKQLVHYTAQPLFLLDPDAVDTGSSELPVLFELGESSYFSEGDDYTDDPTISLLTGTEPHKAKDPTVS

[4] = HEK-293T viability loss, compound-treated – cell-based, uHTS hits, cytotoxicity control for B/T-cell NF-kB inhibitor project, dose response (AID 489019); type: functional;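 also: IC50 reflects cytotoxicity as loss of cell viability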
[5] = test system: HT-1080; assay: HT1080 cell viability loss – fluorescence readout (AID 620); type: functional, cell-based; details: Homo sapiens
[6] = target: Heat shock protein HSP 90-alpha (Homo sapiens, UniProt P07900); assay: Luminescence-based dose response biochemical high throughput screening assay for inhibitors of the Heat Shock Protein 90 (HSP90). [Related pubchem assays: 1831 (Summary AID.), 1846 (Confirmation screen.), 1789 (Primary screen.)]
[7] = target: T3, Microphthalmia-associated transcription factor (Homo sapiens, UniProt O75030); assay: reducers of TRPM1 reporter luminescence, concentration series – cell-based, SK-MEL-5, cherry-picked, set 3, MITF inhibitor project, dose response (AID 493073); type: functional;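 also: SK-MEL-5 melanoma cells with luciferase driven by the MITF target TRPM1 promoter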
T3 sequence (O75030 whole entry): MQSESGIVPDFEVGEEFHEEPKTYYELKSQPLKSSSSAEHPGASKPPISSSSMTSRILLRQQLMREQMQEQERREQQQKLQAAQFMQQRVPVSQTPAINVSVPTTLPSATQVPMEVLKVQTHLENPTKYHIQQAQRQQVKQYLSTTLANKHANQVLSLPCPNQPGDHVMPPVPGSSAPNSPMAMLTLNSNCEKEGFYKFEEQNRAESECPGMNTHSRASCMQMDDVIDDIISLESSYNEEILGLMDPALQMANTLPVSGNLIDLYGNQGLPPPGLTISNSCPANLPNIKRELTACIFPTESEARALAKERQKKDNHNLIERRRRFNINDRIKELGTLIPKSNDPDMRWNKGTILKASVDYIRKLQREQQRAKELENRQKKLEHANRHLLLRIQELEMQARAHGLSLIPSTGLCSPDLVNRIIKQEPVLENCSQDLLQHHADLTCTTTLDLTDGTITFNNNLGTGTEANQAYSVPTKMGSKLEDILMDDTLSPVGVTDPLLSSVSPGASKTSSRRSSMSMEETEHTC

[8] = Luminescence Cell-Based Dose Response HTS to Identify Inhibitors of 5'UTR Stem-Loop Driven Prion Protein mRNA Translation in H4 Neuroglioblastoma Cells. [Related pubchem assays: 1827 (Project Summary), 1813 (Primary HTS)]; type: functional
[9] = luciferase reporter signal suppression in cells – H4 neuroglioma cells, luminescence, dose response (AID 1990); type: functional, cell-based
[10] = target: Luciferin 4-monooxygenase (Photinus pyralis, UniProt P08659); assay: Counter Screen for Luciferase-based Assay Positives. [Related pubchem assays: 620, 618, 411 ]
[11] = target: Glyceraldehyde-3-phosphate dehydrogenase (Homo sapiens, UniProt P04406)
[12] = test system: Jurkat; assay: blockers of NF-kB activation in T cells – Jurkat, luciferase reporter, luminescence, B- and T-cell, dose response (AID 489004); type: functional, cell-based; details: Homo sapiens;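 also: NF-kB luciferase reporter Jurkat cells stimulated with PMA plus ionomycin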
[13] = Luminescence-based counterscreen assay for KLF5 inhibitors: dose response cell-based high throughput screening assay to identify cytotoxic compounds using the IEC-6 intestinal epithelial cell line. [Related pubchem assays: 1700 (Primary screen.), 1834 (Confirmation screen.), 1858 (Summary AID.), 1905 (Counterscreen.)]; type: functional

Luciferin 4-monooxygenase, sequence (P08659 whole entry): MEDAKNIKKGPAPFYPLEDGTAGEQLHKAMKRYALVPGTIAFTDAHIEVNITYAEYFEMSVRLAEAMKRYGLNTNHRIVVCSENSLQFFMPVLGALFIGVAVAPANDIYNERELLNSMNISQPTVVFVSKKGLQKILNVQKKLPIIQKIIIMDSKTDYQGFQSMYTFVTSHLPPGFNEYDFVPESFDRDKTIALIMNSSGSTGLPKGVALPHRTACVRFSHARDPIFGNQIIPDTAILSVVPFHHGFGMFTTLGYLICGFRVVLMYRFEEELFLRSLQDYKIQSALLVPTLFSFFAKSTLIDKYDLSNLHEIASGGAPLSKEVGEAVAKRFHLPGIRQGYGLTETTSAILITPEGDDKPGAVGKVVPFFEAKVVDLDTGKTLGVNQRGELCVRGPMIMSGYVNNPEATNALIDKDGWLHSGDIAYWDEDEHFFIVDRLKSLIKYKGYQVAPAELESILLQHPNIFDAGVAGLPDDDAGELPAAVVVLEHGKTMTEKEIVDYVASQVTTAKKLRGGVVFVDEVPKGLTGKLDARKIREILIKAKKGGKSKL
Glyceraldehyde-3-phosphate dehydrogenase, sequence (P04406 whole entry): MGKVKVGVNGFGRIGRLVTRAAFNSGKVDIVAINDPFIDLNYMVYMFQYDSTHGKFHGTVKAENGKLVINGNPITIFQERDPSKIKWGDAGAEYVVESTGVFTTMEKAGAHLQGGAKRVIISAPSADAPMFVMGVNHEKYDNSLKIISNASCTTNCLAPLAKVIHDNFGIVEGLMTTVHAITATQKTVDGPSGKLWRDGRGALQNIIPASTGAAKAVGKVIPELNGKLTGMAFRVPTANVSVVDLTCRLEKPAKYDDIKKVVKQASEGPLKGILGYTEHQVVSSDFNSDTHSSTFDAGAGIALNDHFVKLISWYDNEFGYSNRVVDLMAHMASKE

Q: Which IC50 [1] does the source give for O=C(O)CSCC(=O)Nc1ccc(C2CCCCC2)cc1 here?
A: 12.6 µM (active)

Q: What about the EC50 [2] of the same molecule?
A: 2.2 µM (active)

Q: What about the EC50 [3] of the same molecule?
A: 0.415 µM (active)

Q: What about the IC50 [4] of the same molecule?
A: > 80 µM (inactive)

Q: What about the EC50 [5] of the same molecule?
A: > 50 µM (not active)

Q: What about the IC50 [6] of the same molecule?
A: > 60 µM (not active)

Q: What about the AC50 [7] of the same molecule?
A: 2.12 µM (active)

Q: And the EC50 [8]?
A: 0.395 µM (active)

Q: What about the EC50 [9] of the same molecule?
A: 0.101 µM (active)

Q: What about the EC50 [10] of the same molecule?
A: 3.61 µM (active)

Q: And the IC50 [11]?
A: > 100 µM (not active)

Q: And the IC50 [12]?
A: 0.26 µM (active)

Q: What about the IC50 [13] of the same molecule?
A: > 39.8 µM (not active)
